Results as given in US10364226B2, “Pyridazinone compounds and uses thereof” (priority 2013, dated 2019).

What follows are compounds tested on Influenza strain A549 A/WSN/33 (H1N1) (assay: Influenza Antiviral Assay). Conditions: Influenza A virus, A549, 20 h, neuraminidase fluorescence readout, read-out: % Inhibition.
Type: cell-based, Influenza A virus

Compound	EC50 [µM]
CNC(=O)c1nn(CC2(c3ccccc3)CCC(C)(C)C2)cc(O)c1=O (stereo not shown) [Compound 776]	< 20
C[C@H](NC(=O)c1nn(CC2(n3cc(Cl)c4cccnc43)CCCC2)cc(O)c1=O)C(F)(F)F [Compound 772]	< 20
CC(C)(C)OC(=O)n1cc(CCn2cc(O)c(=O)c(C(=O)O)n2)c2ccccc21 [Compound 404]	> 100
Cc1cn(C2(Cn3cc(O)c(=O)c(C(=O)NCC(C)(C)CO)n3)CCCC2)c2ncccc12 [Compound 823]	< 20
CNC(=O)c1nn(-c2ccccc2-c2ccc3[nH]ccc3c2)cc(O)c1=O [Compound 613]	> 100
CNC(=O)c1nn(CC2(n3c4ccccc4c4ccccc43)CCCC2)cc(O)c1=O [Compound 896]	< 20
O=C(NCc1cnn(-c2ccc(F)cc2)c1)c1nn(CC2(c3cccc(C(F)(F)F)c3)CCCC2)cc(O)c1=O [Compound 649]	< 20
CNC(=O)c1nn(CC2(N3c4ccccc4C=Cc4ccccc43)CCCC2)cc(O)c1=O [Compound 884]	< 20
CNC(=O)c1nn(CC2c3ccccc3CCc3ccccc32)cc(O)c1=O [Compound 670]	> 100
Cc1cc(CNC(=O)c2nn(CC3(c4cccc(C(F)(F)F)c4)CCCC3)cc(O)c2=O)[nH]n1 [Compound 648]	< 20
CNC(=O)c1nn(CC2(c3ccc(F)c(C(F)(F)F)c3)CCCC2)cc(O)c1=O [Compound 783]	< 20
NC(=O)c1nn(CC2(c3cccc(C(F)(F)F)c3)CC2)cc(O)c1=O [Compound 626]	20 to 100
CNC(=O)c1nn(CC2(c3cccc(OC)c3)CCCC2)cc(O)c1=O [Compound 703]	< 20
CNC(=O)c1nn(CC2(c3cccc4nn(C)cc34)CCCC2)cc(O)c1=O [Compound 882]	< 20
CC(C)(C)NC(=O)c1nn(CC2(n3cc(Cl)c4cccnc43)CCCC2)cc(O)c1=O [Compound 766]	< 20
CNC(=O)c1nn(CC2(n3ccc4cccnc43)CCCC2)cc(O)c1=O [Compound 609]	< 20
CNC(=O)c1nn(CC2(n3cc(C(N)=O)c4cccnc43)CCCC2)cc(O)c1=O [Compound 883]	> 100

Compound	EC50 [µM]
O=C(Nc1ccccc1)c1nn(CC2(c3ccccc3)CCCC2)cc(O)c1=O [Compound 639]	20 to 100
CNC(=O)c1nn(CC(c2ccccc2)c2ccccc2)cc(O)c1=O [Compound 660]	> 100
CNC(=O)c1nn(CC2(n3ccc4cccc(C)c43)CCCC2)cc(O)c1=O [Compound 808]	< 20
CCCc1cnc2c(ccn2C2(Cn3cc(O)c(=O)c(C(=O)NC)n3)CCCC2)c1 [Compound 755]	< 20
O=C(O)c1nn(CC2(n3ccc4cccnc43)CCCC2)cc(O)c1=O [Compound 422]	< 20
O=C(NCC(F)(F)F)c1nn(CC2(c3cccc(C(F)(F)F)c3)CCCC2)cc(O)c1=O [Compound 505]	< 20
O=C(O)c1nn(-c2ccccc2C(F)(F)F)cc(O)c1=O [Compound 7]	> 100
CNC(=O)c1nn(CC2(c3cccc4c3cnn4C)CCCC2)cc(O)c1=O [Compound 881]	< 20
CC(C)c1cccc(C2(Cn3cc(O)c(=O)c(C(=O)O)n3)CCCC2)c1 [Compound 723]	20 to 100
CNC(=O)c1nn(CC2(n3cc(C)c4cc(Cl)ccc43)CCCC2)cc(O)c1=O [Compound 898]	< 20
CS(=O)(=O)c1ccc(NC(=O)c2nn(CC3(c4ccccc4)CCCC3)cc(O)c2=O)cc1 [Compound 721]	> 100
CNC(=O)c1nn(CC2(c3cccc(C4CCCCC4)c3)CCCC2)cc(O)c1=O [Compound 711]	< 20
O=C(Nc1ccc(Cl)cc1Cl)c1nn(CC2(c3ccccc3)CCCC2)cc(O)c1=O [Compound 707]	< 20
CNC(=O)c1nn(CC2(c3cccc(-c4ccsc4)c3)CC2)cc(O)c1=O [Compound 724]	> 100
COc1ccc(NC(=O)c2nn(CC3(c4ccccc4)CCCC3)cc(O)c2=O)cc1OC [Compound 705]	> 100
CNC(=O)c1nn(Cc2cc(C(F)(F)F)ccc2-c2ccc(C(C)(C)C)cc2)cc(O)c1=O [Compound 690]	> 100
CNC(=O)c1nn(-c2ccccc2-c2cc(C)cc(OCC3CC3)c2)cc(O)c1=O [Compound 652]	> 100

These compounds were tested against EN PA (Influenza A virus, UniProt P15659) (assay: EN PA FRET Inhibition Assay). Conditions: read-out: Potency.
Type: biochemical

Compound	IC50 [µM]
CNC(=O)c1nn(CC2(c3ccccc3)CCC(C)(C)C2)cc(O)c1=O (stereo not shown) [Compound 776]	< 0.1
C[C@H](NC(=O)c1nn(CC2(n3cc(Cl)c4cccnc43)CCCC2)cc(O)c1=O)C(F)(F)F [Compound 772]	0.1 to 1
CC(C)(C)OC(=O)n1cc(CCn2cc(O)c(=O)c(C(=O)O)n2)c2ccccc21 [Compound 404]	< 0.1
Cc1cn(C2(Cn3cc(O)c(=O)c(C(=O)NCC(C)(C)CO)n3)CCCC2)c2ncccc12 [Compound 823]	< 0.1
CNC(=O)c1nn(-c2ccccc2-c2ccc3[nH]ccc3c2)cc(O)c1=O [Compound 613]	≥ 1
CNC(=O)c1nn(CC2(n3c4ccccc4c4ccccc43)CCCC2)cc(O)c1=O [Compound 896]	< 0.1
O=C(NCc1cnn(-c2ccc(F)cc2)c1)c1nn(CC2(c3cccc(C(F)(F)F)c3)CCCC2)cc(O)c1=O [Compound 649]	< 0.1
CNC(=O)c1nn(CC2(N3c4ccccc4C=Cc4ccccc43)CCCC2)cc(O)c1=O [Compound 884]	< 0.1
CNC(=O)c1nn(CC2c3ccccc3CCc3ccccc32)cc(O)c1=O [Compound 670]	0.1 to 1
Cc1cc(CNC(=O)c2nn(CC3(c4cccc(C(F)(F)F)c4)CCCC3)cc(O)c2=O)[nH]n1 [Compound 648]	< 0.1
CNC(=O)c1nn(CC2(c3ccc(F)c(C(F)(F)F)c3)CCCC2)cc(O)c1=O [Compound 783]	< 0.1
NC(=O)c1nn(CC2(c3cccc(C(F)(F)F)c3)CC2)cc(O)c1=O [Compound 626]	0.1 to 1
CNC(=O)c1nn(CC2(c3cccc(OC)c3)CCCC2)cc(O)c1=O [Compound 703]	< 0.1
CNC(=O)c1nn(CC2(c3cccc4nn(C)cc34)CCCC2)cc(O)c1=O [Compound 882]	< 0.1
CC(C)(C)NC(=O)c1nn(CC2(n3cc(Cl)c4cccnc43)CCCC2)cc(O)c1=O [Compound 766]	< 0.1
CNC(=O)c1nn(CC2(n3ccc4cccnc43)CCCC2)cc(O)c1=O [Compound 609]	< 0.1
CNC(=O)c1nn(CC2(n3cc(C(N)=O)c4cccnc43)CCCC2)cc(O)c1=O [Compound 883]	< 0.1
O=C(Nc1ccccc1)c1nn(CC2(c3ccccc3)CCCC2)cc(O)c1=O [Compound 639]	0.1 to 1
CNC(=O)c1nn(CC(c2ccccc2)c2ccccc2)cc(O)c1=O [Compound 660]	0.1 to 1
CNC(=O)c1nn(CC2(n3ccc4cccc(C)c43)CCCC2)cc(O)c1=O [Compound 808]	< 0.1
CCCc1cnc2c(ccn2C2(Cn3cc(O)c(=O)c(C(=O)NC)n3)CCCC2)c1 [Compound 755]	< 0.1
O=C(O)c1nn(CC2(n3ccc4cccnc43)CCCC2)cc(O)c1=O [Compound 422]	< 0.1
O=C(NCC(F)(F)F)c1nn(CC2(c3cccc(C(F)(F)F)c3)CCCC2)cc(O)c1=O [Compound 505]	0.1 to 1
O=C(O)c1nn(-c2ccccc2C(F)(F)F)cc(O)c1=O [Compound 7]	0.1 to 1
CNC(=O)c1nn(CC2(c3cccc4c3cnn4C)CCCC2)cc(O)c1=O [Compound 881]	< 0.1
CC(C)c1cccc(C2(Cn3cc(O)c(=O)c(C(=O)O)n3)CCCC2)c1 [Compound 723]	< 0.1
CNC(=O)c1nn(CC2(n3cc(C)c4cc(Cl)ccc43)CCCC2)cc(O)c1=O [Compound 898]	< 0.1
